Laboratory results: patent publication US12227480B1 (priority 2023, dated 2025)

Tested on: Mycobacterium tuberculosis H37Rv (ATCC: 25177)
Assay: Resazurin Microplate Assay (REMA), anti-tubercular activity, H37Rv strain
Type: cell-based
Details: 192 h, read-out: Anti-tubercular activity against Mycobacterium tuberculosis (MIC), H37Rv

**Q.** For `Cc1cc[n+](CC(=O)c2ccc(F)cc2)cc1.[Br-]` [Compound 3d, 1-(2-(4-Fluorophenyl)-2-oxoethyl)-4-methylpyridin-1-ium bromide], which MIC is on record?
**A.** 8 µg/mL
